From patent US20140024683A1, “CHLORIDE CHANNEL AND CHLORIDE TRANSPORTER MODULATORS FOR THERAPY IN SMOOTH MUSCLE DISEASES” (priority 2011, published 2014)

Legend:
[1] = system: human airway smooth muscle; assay: Relaxation of acetylcholine contraction in human airway smooth muscle strips; conditions: 10 μM bumetanide alone
Experimental: Studies using de-identified human tissue were reviewed by the Columbia University Institutional Review Board and deemed not human subjects research. Tissues were obtained from healthy, normal organ donor discarded surgical waste subsequent to lung transplant surgery. Tissues were collected after transplant and placed in DMEM media (GIBCO) and bubbled overnight in 5% carbon dioxide and 95% oxygen at 4° C. The following morning, the smooth muscle tissue was carefully dissected under a dissecting microscope and the epithelium removed. The strips were anchored in the organ bath as described above using KH buffer of the same composition. The strips were allowed to equilibrate for 1 hour with buffer exchanges every 15 minutes and were treated with 10^−6 M tetrodotoxin, 10^−5 M pyrilamine, and 10^−5
M MK571. Strips were contracted with an EC50 dose of acetylcholine (Ach)
This experiment was then repeated with human airway smooth muscle to investigate clinical relevance as a model of bronchospasm in humans.

[2] = system: human airway smooth muscle cells; assay: FLIPR potentiometric dye membrane potential assay (Examples 9, 12); format: cell-based; conditions: 100 μM
Experimental: To determine whether blockade of CaCCs or NKCCs induce membrane potential changes in cultured human airway smooth muscle cells, the FLIPR in vitro fluorescent dye assay (Molecular Devices) was used as described by Wafford et al. (2009). Briefly, human airway smooth muscle cells were grown to 100% confluence in 96-well black-walled plates and were washed with warmed (37° C.) normal-chloride buffer [consisting of (in mM) 130 sodium chloride, 2 CaCl2, 1 MgCl2, 10 D-glucose, and 10 HEPES, pH 7.4] four times. A stock solution (100% dye) of FLIPR blue dye (Molecular Devices) was prepared by reconstitution of 1 vial (125 mg) with 100 ml of the normal-chloride buffer (assay buffer). A 50% working stock was prepared by further diluting the reconstituted blue dye 1:1 with assay buffer and was used to load cells (90 μl/well) over 20 minutes at 37° C. All reagents were dissolved in assay buffer. Baseline fluorescence was measured for 3 minutes prior to the first control additions (assay buffer). […] The fluorescence produced by membrane potential change following solution additions was quantified after subtracting changes induced by assay buffer alone.

rat lung slices = assay: Airway lumen area in peripheral small airways of rat lung slices; conditions: 100 μM NFA; TEA-induced contraction
Experimental: The measurement of airway contraction of a luminal area of small lung airways using the ex vivo rat lung slice method was performed as described (Perez-Zoghbi et al., 2007). The trachea was cannulated with an intravenous catheter, and after the chest cavity was opened, the collapsed lungs were reinflated with 1.3±0.1 ml of 2% agarose (low-gelling temperature) in Sigma-Hanks' Balanced Salt solution (sHBSS), followed by the injection of 0.2±0.1 of air to flush the agarose-sHBSS out of the airways and into the distal alveolar space. Subsequently, a warm (37° C.) solution of gelatin (type A, porcine skin, 300 bloom, 6% in sHBSS) was perfused through the intrapulmonary blood vessels via the pulmonary artery by injecting about 0.3 ml into the right ventricle. The warm agar and gelatin were gelled with cold sHBSS. A single lung lobe was removed and cut into serial sections of about 130 μm thick with a vibratome at about 4° C., starting at the lung periphery. Slices were maintained in DMEM (Invitrogen) at 37° C. and 10% CO2 for up to 3 days. At 37° C., the gelatin in the blood vessel lumen dissolved, leaving the blood vessel lumen empty. Lung slices were mounted in a custom-made perfusion chamber and held in place with a small sheet of nylon mesh. A second cover glass edged with silicone grease was placed over the lung slice. Perfusion of the lung slice was performed using a gravity-fed perfusion system. The volume of the chamber was about 100 μl with a perfusion rate of about 800 μl/min. […] Digital images were recorded in time lapse (30 frames/min). The area of the bronchiole and arteriole lumen was calculated, from each image, by pixel summing using custom-written software. Experiments were performed at room temperature.

[3] = system: guinea pig tracheal rings; assay: Organ bath muscle force, TEA-induced contraction of guinea pig tracheal rings (Examples 1, 4, 13); conditions: 10 mM TEA; 100 μM niflumic acid
Experimental: Epithelial denuded guinea pig tracheal rings were suspended in organ baths under 1 g resting tension with continuous digital recordings of muscle force. In separate studies, guinea pig airway smooth muscle cells were enzymatically dispersed and cultured.
Human muscle tissue was acquired from excess lung airways trimmed during surgery from healthy lung transplant donors. Acquired tissue was stored overnight at […]. Airway smooth muscle contractions measured ex vivo in organ baths were performed as previously described (Gallos et al., 2008; Gallos et al., 2009, Gallos et al., 2011; Gleason et al., 2010; Yim et al., 2011; Mitzuta et al., 2008). Closed guinea pig tracheal rings or strips of human airway smooth muscle (tracheal or main stem bronchus) were suspended in organ baths, which had 95% oxygen constantly perfusing through Dulbecco's Modified Eagle Medium. Rings were cut on the cartilaginous borders of the smooth muscle. The epithelial layer was dissected under microscopic assistance. Briefly, tissues were suspended in a water-jacketed (37° C.) 2-ml organ bath (Radnoti Glass Technology, Monrovia, Calif.) and attached to a Grass FT03 force transducer (Grass Telefactor, West Warwick, R.I.) coupled to a computer via BioPac hardware and Acqknowledge 7.3.3 software (Biopac Systems, Goleta, Calif.). Kreb's-Henseleit (KH) buffer was continuously bubbled with 95% oxygen and 5% carbon dioxide and tissues were allowed to equilibrate at 1 g (guinea pig) or 1.5 g (human) isotonic force for 1 hour with fresh KH buffer changes every 15 minutes.
Following equilibration, in guinea pig experiments, the capsaicin analog N-vanillylnonanamide (10 μM final) was added to the organ baths to first activate and then deplete nonadrenergic, noncholinergic nerves. […]. In experiments with human tissue, no vanillylnonanamide pretreatment was done. To avoid bias between treatment groups, tissues were contracted to individually calculated EC50 values for acetylcholine and tissues with similar Emax values were randomly assigned to treatments within individual experiments. Following extensive KH buffer changes (8-9 times) tissues were allowed to stabilize at isotonic resting tension (about 1.0 g). To remove confounding effects of other procontractile pathways, each bath received a complement of antagonists 20 minutes prior to subsequent contractile challenge. The antagonists included pyrilamine (10 μM; H1 histamine receptor antagonist), and tetrodotoxin (1 μM; blocker of endogenous cholinergic or C-fiber neuronal effects) in guinea pig experiments or pyrilamine and 10 μM MK571 (leukotriene receptor antagonist) in human tissue experiments. […]
Airway smooth muscle contractions measured ex vivo in organ baths were performed as set forth above. […]

| SMILES | relaxation of acetylcholine contraction [1] | membrane potential change (FLIPR) [2] | membrane potential change (FLIPR) ([2]; listed as NFA) | relaxation of TEA-contracted peripheral airway (lumen area) (rat lung slices) | relaxation of TEA-induced contraction [3] |
| --- | --- | --- | --- | --- | --- |
| CCCCNc1cc(C(=O)O)cc(S(N)(=O)=O)c1Oc1ccccc1 [bumetanide] | failed to relax an acetylcholine contraction | – | – | – | – |
| O=C(O)c1cccnc1Nc1cccc(C(F)(F)F)c1 [niflumic acid] | – | hyperpolarized the cell membrane | hyperpolarizes the airway smooth muscle cell plasma membrane | significantly relaxes the peripheral airway contracted with TEA | 82.5% |
